From the CheMixHub ionic liquid set

Assay: xn = mol fraction of the nth substance listed

CCOS(=O)(=O)[O-].CC[N+]1(C)CCCCC1 + O
101 kPa
Details	viscosity [mPa·s]
298.15 K, x2 = 0.1867	690
298.15 K, x2 = 0.5338	97
298.15 K, x2 = 0.894	7.4
303.15 K, x2 = 0.894	6.2
308.15 K, x2 = 0	800
308.15 K, x2 = 0.4417	92
308.15 K, x2 = 0.8593	7.7
313.15 K, x2 = 0.4417	71
313.15 K, x2 = 0.8593	6.5
318.15 K, x2 = 0.3409	90
323.15 K, x2 = 0.2704	93
323.15 K, x2 = 0.7839	8.8
328.15 K, x2 = 0.2704	73
328.15 K, x2 = 0.7839	7.5
333.15 K, x2 = 0.1867	80
333.15 K, x2 = 0.7357	8.6
338.15 K, x2 = 0.1867	65
338.15 K, x2 = 0.7357	7.5
343.15 K, x2 = 0	100
343.15 K, x2 = 0.7357	6.8

CCOS(=O)(=O)[O-].CC[n+]1ccn(C)c1 + O
Details	electrical conductivity [S/m]	viscosity [mPa·s]
283.15 K, 101 kPa, x2 = 0.1966	–	136.9
283.15 K, 101 kPa, x2 = 0.6124	–	32.65
288.15 K, 100 kPa, x1 = 0.0005131	–	1.163
288.15 K, 100 kPa, x1 = 0.0008362	–	1.177
288.15 K, 100 kPa, x1 = 0.001227	–	1.193
288.15 K, 100 kPa, x1 = 0.002025	–	1.227
288.15 K, 100 kPa, x1 = 0.002516	–	1.25
288.15 K, 100 kPa, x1 = 0.003482	–	1.292
288.15 K, 100 kPa, x1 = 0.00456	–	1.342
288.15 K, 100 kPa, x1 = 0.006613	–	1.426
288.15 K, 100 kPa, x1 = 0.008007	–	1.491
288.15 K, 100 kPa, x1 = 0.009969	–	1.577
288.15 K, 100 kPa, x1 = 0.01406	–	1.777
288.15 K, 100 kPa, x1 = 0.0162	–	1.889
293.15 K, 100 kPa, x1 = 0.0005131	–	1.012
293.15 K, 100 kPa, x1 = 0.0008362	–	1.024
293.15 K, 100 kPa, x1 = 0.002516	–	1.092
293.15 K, 100 kPa, x1 = 0.003482	–	1.129
293.15 K, 100 kPa, x1 = 0.00456	–	1.171
293.15 K, 100 kPa, x1 = 0.006613	–	1.247
293.15 K, 100 kPa, x1 = 0.008007	–	1.295
293.15 K, 100 kPa, x1 = 0.009969	–	1.365
293.15 K, 100 kPa, x1 = 0.01406	–	1.508
293.15 K, 100 kPa, x1 = 0.0162	–	1.597
293.15 K, 101 kPa, x2 = 0.0023	–	133.9
293.15 K, 101 kPa, x2 = 0.1225	–	99.1
298.15 K, 100 kPa, x1 = 0.0005131	–	0.9026
298.15 K, 100 kPa, x1 = 0.0008362	–	0.9136
298.15 K, 100 kPa, x1 = 0.001227	–	0.929
298.15 K, 100 kPa, x1 = 0.002025	–	0.9545
298.15 K, 100 kPa, x1 = 0.002516	–	0.9707
298.15 K, 100 kPa, x1 = 0.003482	–	1.004
298.15 K, 100 kPa, x1 = 0.00456	–	1.039
298.15 K, 100 kPa, x1 = 0.006613	–	1.1
298.15 K, 100 kPa, x1 = 0.008007	–	1.141
298.15 K, 100 kPa, x1 = 0.009969	–	1.201
298.15 K, 100 kPa, x1 = 0.01406	–	1.322
298.15 K, 100 kPa, x1 = 0.0162	–	1.392
298.15 K, 101 kPa, x1 = 0.003	0.74	–
298.15 K, 101 kPa, x1 = 0.047	4	–
298.15 K, 101 kPa, x2 = 0.1608	–	70
298.15 K, 101.3 kPa, x1 = 0.01871	3.26	–
298.15 K, 101.3 kPa, x2 = 0	0.398	–
298.15 K, 101.3 kPa, x2 = 0.8489	3.85	–
298.15 K, 101.3 kPa, x2 = 0.9291	4.45	–
298.15 K, 101.3 kPa, x2 = 0.9684	3.95	–
298.15 K, 101.3 kPa, x2 = 0.9752	3.66	–
303.15 K, 100 kPa, x1 = 0.0005131	–	0.8072
303.15 K, 100 kPa, x1 = 0.0008362	–	0.8175
303.15 K, 100 kPa, x1 = 0.001227	–	0.8288
303.15 K, 100 kPa, x1 = 0.002025	–	0.8498
303.15 K, 100 kPa, x1 = 0.002516	–	0.8628
303.15 K, 100 kPa, x1 = 0.003482	–	0.8878
303.15 K, 100 kPa, x1 = 0.00456	–	0.9163
303.15 K, 100 kPa, x1 = 0.006613	–	0.9752
303.15 K, 100 kPa, x1 = 0.008007	–	1.01
303.15 K, 100 kPa, x1 = 0.01406	–	1.156
308.15 K, 100 kPa, x1 = 0.0005131	–	0.7285
308.15 K, 100 kPa, x1 = 0.0008362	–	0.7368
308.15 K, 100 kPa, x1 = 0.001227	–	0.7453
308.15 K, 100 kPa, x1 = 0.002025	–	0.7648
308.15 K, 100 kPa, x1 = 0.002516	–	0.774
308.15 K, 100 kPa, x1 = 0.003482	–	0.7947
308.15 K, 100 kPa, x1 = 0.00456	–	0.8202
308.15 K, 100 kPa, x1 = 0.006613	–	0.8682
308.15 K, 100 kPa, x1 = 0.008007	–	0.8953
308.15 K, 100 kPa, x1 = 0.009969	–	0.9332
308.15 K, 100 kPa, x1 = 0.01406	–	1.02
308.15 K, 100 kPa, x1 = 0.0162	–	1.066
313.15 K, 100 kPa, x1 = 0.0005131	–	0.6616
313.15 K, 100 kPa, x1 = 0.0008362	–	0.669
313.15 K, 100 kPa, x1 = 0.001227	–	0.6761
313.15 K, 100 kPa, x1 = 0.002025	–	0.6922
313.15 K, 100 kPa, x1 = 0.002516	–	0.7008
313.15 K, 100 kPa, x1 = 0.003482	–	0.7189
313.15 K, 100 kPa, x1 = 0.00456	–	0.7368
313.15 K, 100 kPa, x1 = 0.006613	–	0.7779
313.15 K, 100 kPa, x1 = 0.008007	–	0.8031
313.15 K, 100 kPa, x1 = 0.009969	–	0.8366
313.15 K, 100 kPa, x1 = 0.01406	–	0.9075
313.15 K, 100 kPa, x1 = 0.0162	–	0.9429
313.15 K, 101 kPa, x1 = 0.003	0.97	–
313.15 K, 101 kPa, x1 = 0.008	2.5	–
313.15 K, 101 kPa, x1 = 0.013	3.4	–
313.15 K, 101 kPa, x1 = 0.019	3.9	–
313.15 K, 101 kPa, x1 = 0.151	4.7	–
313.15 K, 101 kPa, x1 = 0.642	1.4	–
318.15 K, 100 kPa, x1 = 0.0005131	–	0.6014
318.15 K, 100 kPa, x1 = 0.0008362	–	0.6088
318.15 K, 100 kPa, x1 = 0.001227	–	0.6154
318.15 K, 100 kPa, x1 = 0.002025	–	0.6285
318.15 K, 100 kPa, x1 = 0.002516	–	0.6341
318.15 K, 100 kPa, x1 = 0.003482	–	0.6498
318.15 K, 100 kPa, x1 = 0.00456	–	0.6693
318.15 K, 100 kPa, x1 = 0.006613	–	0.6989
318.15 K, 100 kPa, x1 = 0.008007	–	0.7189
318.15 K, 100 kPa, x1 = 0.009969	–	0.7489
318.15 K, 100 kPa, x1 = 0.01406	–	0.8092
318.15 K, 100 kPa, x1 = 0.0162	–	0.8249
323.15 K, 100 kPa, x1 = 0.0005131	–	0.5543
323.15 K, 100 kPa, x1 = 0.0008362	–	0.5575
323.15 K, 100 kPa, x1 = 0.001227	–	0.5629
323.15 K, 100 kPa, x1 = 0.002025	–	0.5726
323.15 K, 100 kPa, x1 = 0.002516	–	0.5798
323.15 K, 100 kPa, x1 = 0.003482	–	0.592
323.15 K, 100 kPa, x1 = 0.00456	–	0.6071
323.15 K, 100 kPa, x1 = 0.006613	–	0.6309
323.15 K, 100 kPa, x1 = 0.008007	–	0.6496
323.15 K, 100 kPa, x1 = 0.009969	–	0.672
323.15 K, 100 kPa, x1 = 0.01406	–	0.7192
323.15 K, 100 kPa, x1 = 0.0162	–	0.7349
323.15 K, 101 kPa, x2 = 0.427	–	14.57
328.15 K, 100 kPa, x1 = 0.0005131	–	0.5096
328.15 K, 100 kPa, x1 = 0.0008362	–	0.5125
328.15 K, 100 kPa, x1 = 0.001227	–	0.5161
328.15 K, 100 kPa, x1 = 0.002025	–	0.5251
328.15 K, 100 kPa, x1 = 0.002516	–	0.5307
328.15 K, 100 kPa, x1 = 0.003482	–	0.5404
328.15 K, 100 kPa, x1 = 0.00456	–	0.5521
328.15 K, 100 kPa, x1 = 0.006613	–	0.5713
343.15 K, 101 kPa, x2 = 0.0023	–	19.63
343.15 K, 101 kPa, x2 = 0.1966	–	14.47
343.15 K, 101 kPa, x2 = 0.427	–	8.918

CC[n+]1ccn(C)c1.F[P-](F)(F)(F)(F)F + O
viscosity [mPa·s], 100 kPa
Details	298.15 K	303.15 K	308.15 K
x1 = 1.802e-05	0.919	0.85	0.777
x1 = 5.406e-05	0.933	0.855	0.782
x1 = 9.009e-05	0.948	0.86	0.787

CC[n+]1ccn(C)c1.[Br-] + O
viscosity [mPa·s], 100 kPa
Details	288.15 K	298.15 K	303.15 K	308.15 K	318.15 K	333.15 K
x1 = 0.0001802	1.141	0.911	–	0.744	0.627	–
x1 = 0.0007203	1.147	0.916	–	0.748	0.632	–
x1 = 0.00126	1.152	0.923	–	0.754	0.639	–
x1 = 0.049	–	–	1.48	–	–	0.797
x1 = 0.1978	–	–	5.45	–	–	–

C[N+](C)(C)CCO.O=C([O-])[C@@H]1CCCN1 + O
viscosity [mPa·s], 100 kPa
Details	x1 = 0.01436	x1 = 0.02022	x1 = 0.03417
308.15 K	1.18	1.23	–
338.15 K	–	–	1.23
